Laboratory results from PubChem BioAssay (NCI).
Where “and” joins values, the source holds several entries; their conditions need not be identical. Identical values can stand only once.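 Results reflect a 48-hour exposure of cells in 96-well plates to compound at five concentrations. At the GI50, growth is halved. The concentration for full growth arrest is given as TGI.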

Key:
Assay in all cases: NCI tumour cell line growth inhibition, 48 h
NCI/ADR-RES ovarian = test system: NCI/ADR-RES ovarian
MCF7 breast = test system: MCF7 breast
NCI-H522 lung = test system: NCI-H522 lung
NCI-H23 lung = test system: NCI-H23 lung
U251 CNS = test system: U251 CNS
SNB-19 CNS = test system: SNB-19 CNS
OVCAR-3 ovarian = test system: OVCAR-3 ovarian
MALME-3M melanoma = test system: MALME-3M melanoma

Row | SMILES | GI50 (NCI/ADR-RES ovarian) [µM] | TGI (NCI/ADR-RES ovarian) [µM] | GI50 (MCF7 breast) [µM] | TGI (MCF7 breast) [µM] | GI50 (NCI-H522 lung) [µM] | TGI (NCI-H522 lung) [µM] | GI50 (NCI-H23 lung) [µM] | TGI (NCI-H23 lung) [µM] | GI50 (U251 CNS) [µM] | TGI (U251 CNS) [µM] | GI50 (SNB-19 CNS) [µM] | TGI (SNB-19 CNS) [µM] | GI50 (OVCAR-3 ovarian) [µM] | TGI (OVCAR-3 ovarian) [µM] | TGI (MALME-3M melanoma) | GI50 (MALME-3M melanoma) [µM]
1 | CCC(C)[C@H]1O[C@]2(C=C[C@@H]1C)C[C@@H]1C[C@@H](C/C=C(\C)[C@@H](OC3C[C@H](OC)C(O[C@H]4C[C@H](OC)[C@@H](O)[C@H](C)O4)[C@H](C)O3)[C@@H](C)/C=C/C=C3\CO[C@@H]4[C@H](O)C(C)=C[C@@H](C(=O)O1)[C@]34O)O2 (stereo partly specified) | 1.41 | 4.77 | 1.85 | 5.72 | 0.89 | 1.93 | 1.23 | 4.16 | 1.42 | 6.47 | 3.38 | 41.1 | 0.904 | 1.66 |  | 
2 | COc1cc2oc3cc(=O)cc4oc(-c5ccccc5)cc(c2c2c1CCC(c1ccccc1)O2)c43 (stereo unspecified) |  | > 100 |  | 59.2 |  | > 100 |  | > 100 |  | > 100 |  | > 100 |  | 77.6 | > 100 µM | 
3 | CC(=O)OC[C@]12CC[C@@H](C(=O)CBr)[C@@H]1[C@H]1CC[C@@H]3[C@@]4(C)CCCNC(C)(C)[C@@H]4CC[C@@]3(C)[C@]1(C)CC2 | 4.89 | 31.2 | 2.27 | 6.21 | 2.06 | 4.6 | 7.01 | 23.5 | 12.7 | 25.4 | 11.5 | 25.2 | 1.93 | 3.85 | 4.29 µM | 2
4 | CN1CCN(CCOc2ccc(-c3cnc4c(-c5ccc(C(F)(F)F)cc5)cnn4c3)cc2)CC1 |  |  | 1.21 | 2.86 | 1.55 | 3.16 | 1.62 | 3.14 | 1.3 | 2.67 | 1.72 | 3.22 | 1.55 | 2.94 | 2.89 µM | 1.48
5 | OCC(O)C(Cl)CCl (stereo unspecified) |  | > 100 |  | > 100 |  | > 100 |  | > 100 |  | > 100 |  | > 100 |  | > 100 | > 100 µM | 
6 | CCOC(=O)c1c2c(n(Cc3ccc(Cl)cc3Cl)c1C)-c1nc[nH]c1C(=O)C2=O |  |  |  |  | 10.3 | 23.1 |  |  | 7.01 | 19.5 | 12.6 | 26.2 | 2.86 | 10.6 | 27.4 µM | 11.6
7 | N#CCCN(CCCN(CCCN(C(=O)Nc1ccccc1)c1ccccc1)C(=O)Nc1ccccc1)C(=O)Nc1ccccc1 | > 100 | > 100 | 11.9 | > 100 |  |  |  |  |  | > 100 |  | > 8.75 | > 100 | > 100 | > 8.75 µM and 67.2 µM | 16
8 | Cc1cc(C(=C2C=CC(=Nc3ccccc3)C=C2)c2ccc(Nc3ccccc3)cc2)ccc1N | 0.643 | 2.22 | 0.346 | 1.37 | 0.203 | 0.602 | 0.382 | 1.69 | 0.185 | 0.39 | 0.397 | 1.56 | 0.293 | 0.876 | 0.777 µM | 0.25
